# Patent US11319315B2, “Cyclohexyl acid triazole azoles as LPA antagonists” (BRISTOL-MYERS SQUIBB COMPANY, priority 2017, dated 2022)
# Structures can show the parent of a compound that is named as a salt.
# Target: T1, human LPA1 (Homo sapiens, UniProt Q92633)
# T1 construct: expressed in transfected cells; host or cells: Chinese hamster ovary (CHO) cells
# Assay: LPA1 functional antagonist assay (LPA-induced calcium flux in CHO cells overexpressing human LPA1)
# Assay type: cell-based
# Conditions: inhibition of calcium flux induced by 10 nM LPA, CHO cells overexpressing human LPA1; read-out: hLPA1 IC50
# Description: The effectiveness of compounds of the present invention as LPA1 inhibitors can be determined in an LPA1 functional antagonist assay as follows:
# Chinese hamster ovary cells overexpressing human LPA1 were plated overnight (15,000 cells/well) in poly-D-lysine coated 384-well microplates (Greiner bio-one, Cat #781946) in DMEM/F12 medium (Gibco, Cat #11039). Following overnight culture, cells were loaded with calcium indicator dye (AAT Bioquest Inc, Cat #34601) for 30 minutes at 37° C. The cells were then equilibrated to room temperature for 30 minutes before the assay. Test compounds solubilized in DMSO were transferred to 384 well non-binding surface plates (Corning, Cat #3575) using the Labcyte Echo acoustic dispense and diluted with assay buffer [IX HBSS with calcium/magnesium (Gibco Cat #14025-092), 20 mM HEPES (Gibco Cat #15630-080) and 0.1% fatty acid free BSA (Sigma Cat #A9205)] to a final concentration of 0.5% DMSO. Diluted compounds were added to the cells by FDSS6000 (Hamamatsu) at final concentrations ranging from 0.08 nM to 5 μM. and were then incubated for 20 min at room temperature at which time LPA (Avanti Polar Lipids Cat #857130C) was added at final concentrations of 10 nM to stimulate the cells. The compound IC50 value was defined as the concentration of test compound which inhibited 50% of the calcium flux induced by LPA alone. IC50 values were determined by fitting data to a 4-parameter logistic equation (GraphPad Prism, San Diego Calif.).
# T1 sequence (Q92633 whole entry): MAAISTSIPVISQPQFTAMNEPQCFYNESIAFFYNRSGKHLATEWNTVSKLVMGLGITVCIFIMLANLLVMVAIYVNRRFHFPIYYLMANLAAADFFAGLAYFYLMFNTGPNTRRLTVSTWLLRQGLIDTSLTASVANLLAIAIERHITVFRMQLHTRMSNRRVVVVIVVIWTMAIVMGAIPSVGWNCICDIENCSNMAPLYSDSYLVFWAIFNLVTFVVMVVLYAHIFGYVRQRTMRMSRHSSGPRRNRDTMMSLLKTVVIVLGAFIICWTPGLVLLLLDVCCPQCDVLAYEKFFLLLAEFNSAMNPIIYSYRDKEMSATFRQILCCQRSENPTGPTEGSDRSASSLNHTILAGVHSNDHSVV
row,SMILES,IC50 [nM]
1,"Cc1nc(-c2nnn(C)c2Cn2nnnc2C2CCCC2)ccc1O[C@H]1CCC[C@H](C(=O)O)C1 [Example 330, (1S,3S)-3-((6-(5-((5-cyclopentyl-1H-tetrazol-1-yl)methyl)-1-methyl-1H-1,2,3-triazol-4-yl)-2-methylpyridin-3-yl)oxy)cyclo-hexane-1-carboxylic acid]",385
2,Cc1nc(-c2nnn(C)c2Cc2nnc(-c3ccccc3)o2)ccc1O[C@H]1CCC[C@H](C(=O)O)C1 [Example 76],290
3,"Cc1nc(-c2nnn(C)c2Cn2nnc(-c3ccc(F)cc3)n2)ccc1O[C@H]1CCC[C@H](C(=O)O)C1 [Example 322, (1S,3S)-3-((6-(5-((5-(4-fluoro-phenyl)-2H-tetrazol-2-yl)methyl)-1-methyl-1H-1,2,3-triazol-4-yl)-2-methylpyridin-3-yl)oxy)cyclo-hexane-1-carboxylic acid]",243
4,"Cc1nc(-c2nnn(C)c2Cn2nnc(CC(C)C)n2)ccc1O[C@H]1CCC[C@H](C(=O)O)C1 [Example 327, (1S,3S)-3-((6-(5-((5-isobutyl-2H-tetrazol-2-yl)methyl)-1-methyl-1H-1,2,3-triazol-4-yl)-2-methylpyridin-3-yl)oxy)cyclohexane-1-carboxylic acid]",28
5,Cc1nc(-c2nnn(C)c2CNc2nsc(C(C)C)n2)ccc1O[C@H]1CCC[C@H](C(=O)O)C1 [Example 120],25
6,"Cc1nc(-c2nnn(C)c2Cn2nnc(OCC3CC(F)(F)C3)n2)ccc1O[C@H]1CCC[C@@H](C(=O)O)C1 [Example 334, (1R,3S)-3-({6-[5-({5-[(3,3-difluoro-cyclobutyl)methoxy]-2H-1,2,3,4-tetrazol-2-yl}methyl)-1-methyl-1H-1,2,3-triazol-4-yl]-2-methylpyridin-3-yl}oxy)cyclohexane-1-carboxylic acid]",258
7,Cc1nc(-c2nnn(C)c2CNc2nc(CC3CCC3)no2)ccc1O[C@H]1CCC[C@H](C(=O)O)C1 [Example 156],29
8,"Cn1nnc(-c2ccc(O[C@H]3CCC[C@H](C(=O)O)C3)cn2)c1Cn1nnc(CC2CC2)n1 [Example 250, (1 S,3 S)-3-((6-(5-((5-(cyclopropylmethyl)-2H-tetrazol-2-yl)methyl)-1-methyl-1H-1,2,3-triazol-4-yl)pyridin-3-yl)oxy)cyclohexane-1-carboxylic acid]",44
9,"Cn1nnc(-c2ccc(O[C@H]3CCC[C@H](C(=O)O)C3)cn2)c1Cn1nnc(C2CCCC2)n1 [Example 259, (1S,3S)-3-((6-(5-((5-cyclopentyl-2H-tetrazol-2-yl)methyl)-1-methyl-1H-1,2,3-triazol-4-yl)pyridin-3-yl)oxy)cyclohexane-1-carboxylic acid]",31
10,Cc1nc(-c2nnn(C)c2CNc2noc(C3CCCC3)n2)ccc1O[C@H]1CCC[C@H](C(=O)O)C1 [Example 176],25.4
11,"Cc1nc(-c2nnn(C)c2Cn2nnnc2CCC(C)C)ccc1O[C@H]1CCC[C@H](C(=O)O)C1 [Example 309, (1S,3S)-3-{[2-methyl-6-(1-methyl-5-{[5-(3-methylbutyl)-1H-1,2,3,4-tetrazol-1-yl]methyl}-1H-1,2,3-triazol-4-yl)pyridin-3-yl]oxy}cyclohexane-1-carboxylic acid]",191
12,"Cc1nc(-c2nnn(C)c2Cn2ncc(C3CC3)n2)ccc1O[C@H]1CCC[C@H](C(=O)O)C1 [Example 266, (1S,3S)-3-((6-(5-((4-cyclopropyl-2H-1,2,3-triazol-2-yl)methyl)-1-methyl-1H-1,2,3-triazol-4-yl)-2-methyl-pyridin-3-yl)oxy)cyclohexane-1-carboxylic acid]",90
13,Cc1nc(-c2nnn(C)c2CNc2cnn(C(C)C)n2)ccc1O[C@H]1CCC[C@H](C(=O)O)C1 [Example 124],337
14,"Cc1nc(-c2nnn(C)c2CNc2noc(CCC(C)C)n2)c(F)cc1O[C@H]1CCC[C@H](C(=O)O)C1 [Example 281, (1S,3S)-3-((5-fluoro-6-(5-(((5-isopentyl-1,2,4-oxadiazol-3-yl)amino)methyl)-1-methyl-1H-1,2,3-triazol-4-yl)-2-methylpyridin-3-yl)oxy)cyclohexane-1-carboxylic acid]",67
15,Cc1nc(-c2nnn(C)c2CNc2nc(Cc3ccccc3)no2)ccc1O[C@H]1CCC[C@H](C(=O)O)C1 [Example 63],38
16,Cc1nc(-c2nnn(C)c2CNc2noc([C@H]3C[C@@](C)(F)C3)n2)ccc1O[C@H]1CCC[C@H](C(=O)O)C1 [Example 191],112
17,Cc1nc(-c2nnn(C)c2CNc2cnn(CC3CC3)n2)ccc1O[C@H]1CCC[C@H](C(=O)O)C1 [Example 31],54
18,CCC(C)n1cnc(NCc2c(-c3ccc(O[C@H]4CCC[C@H](C(=O)O)C4)c(C)n3)nnn2C)n1 (stereo partly drawn) [Example 149],221
19,"Cc1nc(-c2nnn(C)c2Cn2nnc(OCc3ccccc3)n2)ccc1O[C@H]1CCC[C@H](C(=O)O)C1 [Example 342, (1S,3S)-3-{[6-(5-{[5-(benzyloxy)-2H-1,2,3,4-tetrazol-2-yl]methyl}-1-methyl-1H-1,2,3-triazol-4-yl)-2-methylpyridin-3-yl]oxy}cyclo-hexane-1-carboxylic acid]",11
20,"Cc1nc(-c2nnn(C)c2Cc2nc(CCC(C)C)no2)ccc1O[C@H]1CCC[C@H](C(=O)O)C1 [Example 241, (1 S,3 S)-3-((6-(5-((3-isopentyl-1,2,4-oxadiazol-5-yl)methyl)-1-methyl-1H-1,2,3-triazol-4-yl)-2-methylpyridin-3-yl)oxy)cyclohexane-1-carboxylic acid]",33
21,"C=C(C)c1cnn(Cc2c(-c3ccc(O[C@H]4CCC[C@H](C(=O)O)C4)c(C)n3)nnn2C)n1 [Example 271, (1S,3 S)-3-((2-methyl-6-(1-methyl-5-((4-(prop-1-en-2-yl)-2H-1,2,3-triazol-2-yl)methyl)-1H-1,2,3-triazol-4-yl)pyridin-3-yl)oxy)cyclohexane-1-carboxylic acid]",136
22,Cc1nc(-c2nnn(C)c2CNc2noc(C3CC3(C)C)n2)ccc1O[C@H]1CCC[C@H](C(=O)O)C1 (stereo partly drawn) [Example 181],24.1
23,"Cc1nc(-c2nnn(C)c2Cn2nnc(OC3CCCC3)n2)ccc1O[C@H]1CCC[C@H](C(=O)O)C1 [Example 336, (1S,3S)-3-{[6-(5-{[5-(cyclopentyl-oxy)-2H-1,2,3,4-tetrazol-2-yl]methyl}-1-methyl-1H-1,2,3-triazol-4-yl)-2-methylpyridin-3-yl]oxy}cyclohexane-1-carboxylic acid]",67
24,"Cc1nc(-c2nnn(C)c2CNc2nnc(C(C)C)o2)ccc1O[C@H]1CCC[C@H](C(=O)O)C1 [Example 42, (1S,3S)-3-((6-(5-(((5-Isopropyl-1,3,4-oxadiazol-2-yl)amino)methyl)-1-methyl-1H-1,2,3-triazol-4-yl)-2-methylpyridin-3-yl)oxy)cyclohexane-1-carboxylic acid, 2 TFA salt]",1410

# Same assay, conditions: read-out: hLPA1 IC50
row,SMILES,IC50 [nM]
1,"Cn1nnc(-c2ncc(O[C@H]3CCC[C@H](C(=O)O)C3)cc2F)c1CNc1noc(CCC2CC2)n1 [Example 409, (1S,3S)-3-((6-(5-(((5-(2-cyclopropylethyl)-1,2,4-oxadiazol-3-yl)amino)methyl)-1-methyl-1H-1,2,3-triazol-4-yl)-5-fluoropyridin-3-yl)oxy)cyclohexane-1-carboxylic acid]",1920
2,"Cc1nc(-c2nnn(C)c2Cc2nnn(CC3CC3)n2)ccc1O[C@H]1CCC[C@H](C(=O)O)C1 [Example 360, (1S,3S)-3-((6-(5-((2-(cyclopropyl-methyl)-2H-tetrazol-5-yl)methyl)-1-methyl-1H-1,2,3-triazol-4-yl)-2-methylpyridin-3-yl)oxy)cyclo-hexane-1-carboxylic acid]",92
3,"CCc1nc(-c2nnn(C)c2Cn2cc(C(C)C)nn2)ccc1O[C@H]1CCC[C@H](C(=O)O)C1 [Example 371, (1S,3S)-3-((2-ethyl-6-(5-((4-isopropyl-1H-1,2,3-triazol-1-yl)methyl)-1-methyl-1H-1,2,3-triazol-4-yl)pyridin-3-yl)oxy)cyclohexane-1-carboxylic acid]",1540
4,"COCCCCCOc1nnn(Cc2c(-c3ccc(O[C@H]4CCC[C@H](C(=O)O)C4)c(C)n3)nnn2C)n1 [Example 406, (1S,3S)-3-({6-[5-({5-[(5-methoxy-pentyl)oxy]-2H-1,2,3,4-tetrazol-2-yl}methyl)-1-methyl-1H-1,2,3-triazol-4-yl]-2-methylpyridin-3-yl}oxy)cyclohexane-1-carboxylic acid]",681
5,"COc1ccc(-n2nnc(NCc3c(-c4ccc(O[C@H]5CCC[C@@H](C(=O)O)C5)c(C)n4)nnn3C)n2)cc1 [Example 379, (1R,3S)-3-((6-(5-(((2-(4-methoxy-phenyl)-2H-tetrazol-5-yl)amino)methyl)-1-methyl-1H-1,2,3-triazol-4-yl)-2-methylpyridin-3-yl)oxy)cyclohexane-1-carboxylic acid]",2080
6,"CCc1nc(-c2nnn(C)c2CNc2nc(C3CC3)ns2)ccc1O[C@H]1CCC[C@H](C(=O)O)C1 [Example 397, (1S,3S)-3-((6-(5-(((3-cyclopropyl-1,2,4-thiadiazol-5-yl)amino)methyl)-1-methyl-1H-1,2,3-triazol-4-yl)-2-ethylpyridin-3-yl)oxy)cyclohexane-1-carboxylic acid]",931
